Source: US20220389047A1, “O-GLCNACYLATED PROTEIN-LIKE SUBSTANCE AND FIBROSIS THERAPEUTIC DRUG CONTAINING SAME” (KYUSHU UNIVERSITY, NATIONAL UNIVERSITY CORPORATION, priority 2019, published 2022)

Tests used:
NHDF = test: Chemotaxis of NHDF under agarose gel containing the substance; type: cell-based, human; settings: FIG. 10, comparison of polymer, monomer, GlcNAc and PBS
Procedure: Using AC-GlcNAc (10-mer) as an O-GlcNAcylated protein-like substance, 250 μg/mL AC-GlcNAc (10-mer) was mixed with an agarose gel to prepare an O-GlcNAcylated protein-like substance-containing agarose gel. In addition, a PBS-containing agarose gel was prepared using PBS instead of the O-GlcNAcylated protein-like substance. A glass plate was placed in a petri dish, each agarose gel was added dropwise onto the glass plate, NHDF was further seeded on the entire glass plate, and incubation was performed for one day.
Next, agarose gels having blending amounts of 50 μg/mL, 100 μg/mL, and 250 μg/mL of the O-GlcNAcylated protein-like substance were prepared, and the chemotaxis of NHDF was evaluated in the same manner as above. […]
Next, the chemotaxis of NHDF by an O-GlcNAcylated protein-like substance was evaluated. The materials used were the O-GlcNAcylated protein-like substance prepared in Polymerization Example 1, the AC-GlcNAc monomer prepared in Polymerization Example 5, and N-acetylglucosamine (GlcNAc) and PBS used in Example 2, and the chemotaxis of NHDF was evaluated in the same manner as above. […]
Next, it was evaluated by the same method as above whether or not there was a difference in the chemotaxis of NHDF due to the difference in the degree of polymerization of the O-GlcNAcylated protein-like substance. […]

NHDF GDF15 = test: Western blotting of GDF15 expression in NHDF; type: cell-based, human; settings: 50 μg/mL, 24 hours, versus control with nothing added
Procedure: 50 μg/mL of the O-GlcNAcylated protein-like substance, the AC-GlcNAc monomer, or N-acetylglucosamine (GlcNAc) prepared in Polymerization Examples 1 to 5 was added to NHDF, and incubation was performed for 24 hours. After the incubation, the expression of NHDF GDF15 was examined by Western blotting. Furthermore, the control was one to which nothing was added.
Furthermore, 10 μg/mL, 50 μg/mL, and 100 μg/mL of the O-GlcNAcylated protein-like substances (AC-GlcNAc10, mass-average molecular weight: 4,000, number-average molecular weight: 3,100) prepared in Polymerization Example 1 were each added to NHDF, and incubation was performed for 24 hours. After the incubation, the expression of NHDF GDF15 was observed by Western blotting. Furthermore, the control was one to which nothing was added.

SMILES | invasion of cells under the agarose gel (NHDF) | expression of GDF15 (Western blotting) (NHDF GDF15)
C=CC(=O)OCCC(=O)NC1OC(CO)[C@@H](O)C(O)C1NC(C)=O (stereo partly shown) [AC-GlcNAc monomer] | cells invaded under the agarose gel only with the O-GlcNAcylated protein-like substance of Polymerization Example 1 | almost the same effect as the control
CC(=O)N[C@H]1C(O)O[C@H](CO)[C@@H](O)[C@@H]1O (stereo partly shown) [GlcNAc, N-acetylglucosamine] | cells invaded under the agarose gel only with the O-GlcNAcylated protein-like substance of Polymerization Example 1 | almost the same effect as the control
